Source: ChEMBL document CHEMBL1681671, “Substrate-controlled chemoselective synthesis and potent cytotoxic activity of novel 5,6,7-triarylpyrido[2,3-d]pyrimidin-4-one derivatives” (Bioorg Med Chem Lett, 2011)
≈ marks a conversion by molar mass, not a printed value.

Tests used:
[1] = Cytotoxicity against human SW1116 cells assessed as cell proliferation inhibition rate at 0.1 ug/ml after 24 hrs by MTT assay; type: functional; settings: SW 1116, 24 h
[2] = system: SGC-7901; experiment: Cytotoxicity against human SGC7901 cells assessed as cell mortality after 20 hrs by MTT assay; type: functional, cell-based; settings: SGC-7901, 20 h
[3] = Cytotoxicity against human SW1116 cells assessed as cell proliferation inhibition rate at 10 ug/ml after 24 hrs by MTT assay; type: functional; settings: SW 1116, 24 h
[4] = Cytotoxicity against human SW1116 cells assessed as cell proliferation inhibition rate at 1 ug/ml after 24 hrs by MTT assay; type: functional; settings: SW 1116, 24 h

| Structure (SMILES) | inhibition at 0.1 µg/mL [1] [%] | IC50 [2] [µg/mL] | inhibition at 10 µg/mL [3] [%] | inhibition at 1 µg/mL [4] [%] |
| --- | --- | --- | --- | --- |
| Nc1nc2c(c(=O)[nH]1)C(c1ccc(F)cc1)C(c1ccccc1)=C(c1ccccc1)N2 (stereo unspecified) | 31.6 | 13 (≈ 31.8 µM) | 50.3 | 17.6 |
| Nc1nc2c(c(=O)[nH]1)C(c1ccc(Br)cc1)C(c1ccccc1)=C(c1ccccc1)N2 (stereo unspecified) | 19.8 | 0.074 (≈ 0.157 µM) | 12 | 19.3 |
| Nc1nc2c(c(=O)[nH]1)C(c1ccc(Cl)cc1)C(c1ccccc1)=C(c1ccccc1)N2 (stereo unspecified) | 14.9 | 0.104 (≈ 0.244 µM) | 25.5 | 25.1 |
| COc1ccc(C2C(c3ccccc3)=C(c3ccccc3)Nc3nc(N)[nH]c(=O)c32)cc1 (stereo unspecified) | 43 | 0.341 (≈ 0.807 µM) | 42.8 | 29.1 |
| CN(C)c1ccc(C2C(c3ccccc3)=C(c3ccccc3)Nc3nc(N)[nH]c(=O)c32)cc1 (stereo unspecified) | 20.5 | 0.79 (≈ 1.81 µM) | 14 | 27.9 |
| Nc1nc2c(c(=O)[nH]1)C(c1ccc3c(c1)OCO3)C(c1ccccc1)=C(c1ccccc1)N2 (stereo unspecified) | 15.1 | 0.09 (≈ 0.206 µM) | 20.6 | 34.6 |
| Nc1nc2c(c(=O)[nH]1)C(c1cccs1)C(c1ccccc1)=C(c1ccccc1)N2 (stereo unspecified) | 22.4 | 0.108 (≈ 0.271 µM) | 48.3 | 37.2 |
| COc1ccccc1[C@@H]1c2c(nc(N)[nH]c2=O)N=C(c2ccccc2)[C@H]1c1ccccc1 (racemic) | 22.4 | 0.359 (≈ 0.85 µM) | 31.6 | 6.47 |
| COc1ccc([C@@H]2c3c(nc(N)[nH]c3=O)N=C(c3ccccc3)[C@H]2c2ccccc2)cc1OC (racemic) | 2.24 | 0.606 (≈ 1.34 µM) | 23.9 | 13.8 |
| COc1cc([C@@H]2c3c(nc(N)[nH]c3=O)N=C(c3ccccc3)[C@H]2c2ccccc2)cc(OC)c1OC (racemic) | 21.8 | 2.98 (≈ 6.17 µM) | 36.9 | 16.7 |
| Nc1nc2c(c(=O)[nH]1)[C@@H](c1ccccc1Cl)[C@H](c1ccccc1)C(c1ccccc1)=N2 (racemic) | 31.8 | 1.56 (≈ 3.67 µM) | 38.7 | 27.3 |
| COc1cccc2c1C(=O)c1c(O)c3c(c(O)c1C2=O)C[C@@](O)(C(=O)CO)C[C@@H]3O[C@H]1C[C@H](N)[C@H](O)[C@H](C)O1.Cl [DOXORUBICIN HYDROCHLORIDE] | – | 0.078 | 28.5 | – |
